According to the supplement of paper PMC4862054:
Values joined by “and” are separate entries in the source; they are usually repeats but may differ in a detail not shown here. Equal values may be shown once.

Legend:
Experiment in all cases: normalised viability (% of control), CellTiter-Blue; higher = more viable cells (about 100 = DMSO control)
Conditions in all cases: incubation time: 72 h
CAL-148 [1] = test system: CAL-148
Description: (§1)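 DSRT, CellTiter-Blue viability, 72 h incubation. Signal is normalised to DMSO and benzethonium chloride controls. Value is the normalised response at dose 8.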

MDA-MB-453 [2] = test system: MDA-MB-453
Description: as §1

CAL-85-1 [3] = test system: CAL-85-1
Description: as §1

DU-4475 [4] = test system: DU-4475
Description: as §1

HDQ-P1 [5] = test system: HDQ-P1
Description: as §1

CAL-51 [6] = test system: CAL-51
Description: as §1

CAL-148 [7] = test system: CAL-148; remark: listed apart in the source
Description: (§2)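 DSRT, CellTiter-Blue viability, 72 h incubation. Signal is normalised to DMSO and benzethonium chloride controls. Value is the normalised response at dose 6.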

MDA-MB-453 [8] = test system: MDA-MB-453; remark: listed apart in the source
Description: as §2

CAL-85-1 [9] = test system: CAL-85-1; remark: listed apart in the source
Description: as §2

DU-4475 [10] = test system: DU-4475; remark: listed apart in the source
Description: as §2

HDQ-P1 [11] = test system: HDQ-P1; remark: listed apart in the source
Description: as §2

CAL-51 [12] = test system: CAL-51; remark: listed apart in the source
Description: as §2

| SMILES | normalised viability (CAL-148 [1]) | normalised viability (MDA-MB-453 [2]) | normalised viability (CAL-85-1 [3]) | normalised viability (DU-4475 [4]) | normalised viability (HDQ-P1 [5]) | normalised viability (CAL-51 [6]) | normalised viability (CAL-148 [7]) | normalised viability (MDA-MB-453 [8]) | normalised viability (CAL-85-1 [9]) | normalised viability (DU-4475 [10]) | normalised viability (HDQ-P1 [11]) | normalised viability (CAL-51 [12]) |
| --- | --- | --- | --- | --- | --- | --- | --- | --- | --- | --- | --- | --- |
| Cc1c(CN2CCN(C(=O)[C@H](C)O)CC2)sc2c(N3CCOCC3)nc(-c3cnc(N)nc3)nc12 [GDC-0980] (3000 nM) | 5.28% | 6.67% | 16.9% | 19.4% | 14.2% | 7.42% | – | – | – | – | – | – |
| Nc1cccc2c1CN(C1CCC(=O)NC1=O)C2=O (configuration not stated) [Lenalidomide] (300 nM) | – | – | – | – | – | – | 92% and 96.1% | 97.7% and 101% | 87.3% and 90.2% | 103% and 86.6% | 66.2% and 69.3% | 107% and 103% |
| Nc1cccc2c1CN(C1CCC(=O)NC1=O)C2=O (configuration not stated) [Lenalidomide] (3000 nM) | 80.2% and 98.3% | 96.9% and 117% | 88.6% and 90.2% | 101% and 100% | 93.5% and 92.2% | 109% and 105% | – | – | – | – | – | – |
| C[C@]12O[C@H](C[C@]1(O)CO)n1c3ccccc3c3c4c(c5c6ccccc6n2c5c31)CNC4=O [Lestaurtinib] (30 nM) | – | – | – | – | – | – | 107% | 105% | 114% | 91.3% | 84.5% | 111% |
| C[C@]12O[C@H](C[C@]1(O)CO)n1c3ccccc3c3c4c(c5c6ccccc6n2c5c31)CNC4=O [Lestaurtinib] (300 nM) | 75.9% | 50.2% | 65% | 26.7% | 92.4% | 76.5% | – | – | – | – | – | – |
| O=C1c2c(O)ccc(O)c2C(=O)c2c(NCCNCCO)ccc(NCCNCCO)c21 [Mitoxantrone] (30 nM) | – | – | – | – | – | – | 56.1% | 98% | 73.1% | 21.7% | 63.9% | 42.9% |
| O=C1c2c(O)ccc(O)c2C(=O)c2c(NCCNCCO)ccc(NCCNCCO)c21 [Mitoxantrone] (300 nM) | 12.7% | 66% | 59.1% | 9.52% | 52.5% | 28% | – | – | – | – | – | – |
| Nc1ccccc1NC(=O)c1ccc(CNc2nccc(-c3cccnc3)n2)cc1 [Mocetinostat] (300 nM) | – | – | – | – | – | – | 87.5% | 69% | 85.8% | 81.9% | 57.8% | 92.9% |
| Nc1ccccc1NC(=O)c1ccc(CNc2nccc(-c3cccnc3)n2)cc1 [Mocetinostat] (3000 nM) | 37.3% | 20.6% | 23.6% | 5.41% | 71.6% | 51.7% | – | – | – | – | – | – |
| COc1nc(N)nc2c1ncn2[C@@H]1O[C@H](CO)[C@@H](O)[C@@H]1O [Nelarabine] (3000 nM) | 90.6% and 84.7% | 86.7% and 106% | 94.5% and 98% | 121% and 112% | 74.7% and 87.7% | 102% and 97.6% | – | – | – | – | – | – |
| Cc1ccc(Nc2nccc(N(C)c3ccc4c(C)n(C)nc4c3)n2)cc1S(N)(=O)=O [Pazopanib] (300 nM) | – | – | – | – | – | – | 85.7% | 88.4% | 96.1% | 102% | 64% | 95.6% |
| Cc1ccc(Nc2nccc(N(C)c3ccc4c(C)n(C)nc4c3)n2)cc1S(N)(=O)=O [Pazopanib] (3000 nM) | 67.7% | 42.5% | 96% | 110% | 77.9% | 87.6% | – | – | – | – | – | – |
| O=C(CCBr)N1CCN(C(=O)CCBr)CC1 [Pipobroman] (300 nM) | – | – | – | – | – | – | 107% | 113% | 101% | 110% | 87.1% | 106% |
| O=C(CCBr)N1CCN(C(=O)CCBr)CC1 [Pipobroman] (3000 nM) | 104% | 108% | 102% | 106% | 100% | 124% | – | – | – | – | – | – |
| c1cc(CN2CCCNCCNCCCNCC2)ccc1CN1CCCNCCNCCCNCC1 [Plerixafor] (75 nM) | – | – | – | – | – | – | 85.9% | 93.3% | 95% | 101% | 84% | 103% |
| c1cc(CN2CCCNCCNCCCNCC2)ccc1CN1CCCNCCNCCCNCC1 [Plerixafor] (750 nM) | 79.1% | 92.5% | 93% | 95.9% | 119% | 103% | – | – | – | – | – | – |
| C[C@]12C=CC(=O)C=C1CC[C@@H]1[C@@H]2[C@@H](O)C[C@@]2(C)[C@H]1CC[C@]2(O)C(=O)CO [Prednisolone] (300 nM) | – | – | – | – | – | – | 105% | 79.4% | 110% | 113% | 64.2% | 104% |
| C[C@]12C=CC(=O)C=C1CC[C@@H]1[C@@H]2[C@@H](O)C[C@@]2(C)[C@H]1CC[C@]2(O)C(=O)CO [Prednisolone] (3000 nM) | 96% | 75.4% | 117% | 106% | 121% | 102% | – | – | – | – | – | – |
| CNC(=O)c1cc(Oc2ccc(NC(=O)Nc3ccc(Cl)c(C(F)(F)F)c3)cc2)ccn1 [Sorafenib] (30 nM) | – | – | – | – | – | – | 109% and 91.4% | 106% and 99.1% | 97.6% and 103% | 101% and 115% | 81.1% and 72.2% | 108% and 101% |
| CCN(CC)CCNC(=O)c1c(C)[nH]c(/C=C2\C(=O)Nc3ccc(F)cc32)c1C [Sunitinib] (30 nM) | – | – | – | – | – | – | 99.5% and 101% | 93.3% and 81.3% | 96.7% and 96.2% | 84.4% and 92.7% | 74.4% and 92.3% | 111% and 91.1% |
| CCN(CC)CCNC(=O)c1c(C)[nH]c(/C=C2\C(=O)Nc3ccc(F)cc32)c1C [Sunitinib] (300 nM) | 93.2% and 108% | 101% and 83.8% | 107% and 105% | 102% and 94.5% | 97.1% and 115% | 113% and 96% | – | – | – | – | – | – |
| CC[C@@]1(O)C(=O)OCc2c1cc1n(c2=O)Cc2cc3c(CN(C)C)c(O)ccc3nc2-1 [Topotecan] (30 nM) | – | – | – | – | – | – | 71.3% | 90.6% | 95.9% | 56.8% | 82.3% | 94.8% |
